Measured values as given in patent US20250368626A1, “SOLID FORMS OF 2-(3,5-DICHLORO-4-((5-ISOPROPYL-6-OXO-1,6-DIHYDROPYRIDAZIN-3-YL)OXY)PHENYL)-3,5-DIOXO-2,3,4,5-TETRAHYDRO-1,2,4-TRIAZINE-6-CARBONITRILE” (Madrigal Pharmaceuticals, Inc., priority 2018, published 2025).
Converted amounts (≈) assume the structure as drawn. One block for each compound: values may come before it.

Tests used:
[1] = Physical form stability of scaled-up salts at 75% relative humidity for 1 week; assay type: physicochemical
[2] = Solubility of salts of Compound A in FaSSGF, FaSSIF and water at 37° C.; settings: for Solubility: 37° C.
[3] = Stability of the co-crystal at 75% RH at 40° C. for 1 week; assay type: physicochemical
[4] = Kinetic and thermodynamic solubility of Compound A and the glutaric acid co-crystal in FaSSGF, FaSSIF and water at 37° C. (HPLC); assay type: physicochemical; settings: for Solubility / solubility at 1 h / solubility at 24 h: 37° C.; for pH: pH of the slurry; for XRPD after slurry: solid form after slurry
Protocol: The kinetic and thermodynamic solubility of the glutaric acid co-crystal was assessed in simulated fasted state gastric and intestinal fluids (FaSSGF and FaSSIF) and also in water. The pH of the system was also measured. The solubility assessment was also performed on Compound A for comparison. […] Samples were collected after 24 hours for equilibrium solubility measurement.

[5] = Dynamic vapor sorption (DVS) of the glutaric acid co-crystal; assay type: physicochemical
From the text: FIG. 83 is a dynamic vapor sorption (DVS) isotherm of the glutaric acid co-crystal of Compound A showing a total mass gain of 1.12% by weight between 2% and 95% relative humidity environments.
No difference in the XRPD pattern was seen after the DVS analysis, the XRPD patterns before and after DVS analysis are shown in FIG. 84.

[6] = solid after solubility test in FaSSGF, by XRPD
[7] = Water, value of the 100X dil sample

SMILES: CC(C)c1cc(Oc2c(Cl)cc(-n3nc(C#N)c(=O)[n-]c3=O)cc2Cl)n[nH]c1=O.CC(C)c1cc(Oc2c(Cl)cc(-n3nc(C#N)c(=O)[n-]c3=O)cc2Cl)n[nH]c1=O.[Ca+2] [Hemi Ca]
- physical form stability compared with starting solids [1]: changes were observed
- Solubility ([2]; FaSSGF): 2.5 µg/mL
- Solubility ([2]; FaSSIF): 800 µg/mL
- Solubility ([2]; Water): 320 µg/mL
- Resulting form ([2]; after solubility test in Water): Dihydrate
- Resulting form [2, 6]: Dihydrate

SMILES: CC(C)c1cc(Oc2c(Cl)cc(-n3nc(C#N)c(=O)[nH]c3=O)cc2Cl)n[nH]c1=O.O=C(O)CCCC(=O)O [Glutaric acid co-crystal]
- stability [3]: stable
- Solubility ([4]; FaSSGF, Equilibrium-24 hours): 1 µg/mL
- Solubility ([4]; FaSSGF, Kinetic-1 hour): 0.1 µg/mL
- Solubility ([4]; FaSSIF, Equilibrium-24 hours): 478.1 µg/mL
- Solubility ([4]; FaSSIF, Kinetic-1 hour): 239.9 µg/mL
- Solubility ([4]; Water, Equilibrium-24 hours): 1.6 µg/mL
- Solubility ([4]; Water, Kinetic-1 hour): 0.3 µg/mL
- pH ([4]; FaSSGF, Equilibrium-24 hours): 1.66
- pH ([4]; FaSSIF, Equilibrium-24 hours): 6.31
- pH ([4]; Water, Equilibrium-24 hours): 4.27
- XRPD after slurry ([4]; FaSSGF, Equilibrium-24 hours): Dihydrate
- XRPD after slurry ([4]; FaSSIF, Equilibrium-24 hours): Dihydrate
- XRPD after slurry ([4]; Water, Equilibrium-24 hours): Dihydrate
- hygroscopicity ([5]; DVS, 2% to 95% RH): not hygroscopic
- mass gain (DVS) ([5]; between 2% and 95% relative humidity, by weight): 1.12%
- XRPD pattern after DVS analysis compared with the starting material ([5]; listed as co-crystal): No difference
- XRPD pattern after DVS analysis compared with the starting material ([5]; listed as glutaric acid co-crystal): no change was observed

SMILES: CC(C)c1cc(Oc2c(Cl)cc(-n3nc(C#N)c(=O)[nH]c3=O)cc2Cl)n[nH]c1=O.O.O [Free form dihydrate]
- Solubility ([2]; FaSSGF): 6.7 µg/mL
- Solubility ([2]; FaSSIF): 2900 µg/mL
- Solubility ([2]; Water): 100 µg/mL

The remaining lines, values ahead:

- Solubility ([2]; FaSSGF): 100 µg/mL
- Solubility ([2]; FaSSIF): 4500 µg/mL
- Solubility ([2]; Water): 200 µg/mL
SMILES: CC(C)c1cc(Oc2c(Cl)cc(-n3nc(C#N)c(=O)[nH]c3=O)cc2Cl)n[nH]c1=O [Free form Anhydrous]

- solubility at 1 h ([4]; fassgf or other biorelevant, thermodynamic from solid, FaSSGF, Kinetic-1 hour): 1.1 µg/mL (≈ 2.53 µM)
- solubility at 24 h ([4]; pH 1.67, fassgf or other biorelevant, thermodynamic from solid, FaSSGF, Equilibrium-24 hours): 1.1 µg/mL (≈ 2.53 µM)
- solubility at 24 h ([4]; pH 6.44, thermodynamic from solid, FaSSIF, Equilibrium-24 hours): 552 µg/mL (≈ 1270 µM)
- solubility at 24 h ([4]; pH 6.57, thermodynamic from solid, Water, Equilibrium-24 hours): 193 µg/mL (≈ 443 µM)
- pH ([4]; FaSSGF, Equilibrium-24 hours): 1.67
- pH ([4]; FaSSIF, Equilibrium-24 hours): 6.44
- pH ([4]; Water, Equilibrium-24 hours): 6.57
- XRPD after slurry ([4]; FaSSGF, Equilibrium-24 hours): Form-A
- XRPD after slurry ([4]; FaSSIF, Equilibrium-24 hours): Form-A
- XRPD after slurry ([4]; Water, Equilibrium-24 hours): Dihydrate
- solubility at 1 h ([4]; thermodynamic from solid, FaSSIF, Kinetic-1 hour): 490 µg/mL (≈ 1120 µM)
- solubility at 1 h ([4]; thermodynamic from solid, Water, Kinetic-1 hour): 25.9 µg/mL (≈ 59.5 µM)
SMILES: CC(C)c1cc(Oc2c(Cl)cc(-n3nc(C#N)c(=O)[nH]c3=O)cc2Cl)n[nH]c1=O [Form A, 2-(3,5-dichloro-4-((5-isopropyl-6-oxo-1,6-dihydropyridazin-3-yl)oxy)phenyl)-3,5-dioxo-2,3,4,5-tetrahydro-1,2,4-triazine-6-carbonitrile]

- Solubility ([2]; FaSSGF): 0.8 µg/mL
- Solubility ([2]; FaSSIF): 2500 µg/mL
- Solubility ([2]; Water): > 25000 µg/mL
- Solubility [2, 7]: 250 µg/mL
- Resulting form ([2]; after solubility test in Water): Clear solution
- Resulting form [2, 6]: Dihydrate
SMILES: CC(C)c1cc(Oc2c(Cl)cc(-n3nc(C#N)c(=O)[n-]c3=O)cc2Cl)n[nH]c1=O.[Na+] [Na]

- Solubility ([2]; FaSSGF): 1.2 µg/mL
- Solubility ([2]; FaSSIF): 2720 µg/mL
- Solubility ([2]; Water): > 21300 µg/mL
- Solubility [2, 7]: 210 µg/mL
- Resulting form ([2]; after solubility test in Water): Clear solution
- Resulting form [2, 6]: Dihydrate
SMILES: CC(C)c1cc(Oc2c(Cl)cc(-n3nc(C#N)c(=O)[n-]c3=O)cc2Cl)n[nH]c1=O.[K+] [K]
